PubChem BioAssay AID602191 (Broad Institute, 2012)
Calls of active or inactive are those of the source.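 How the source made its calls: active means fitted curve reaches 40% activation at a concentration no higher than the top valid tested dose; inconclusive means flat fit between 30% and 70% activation, or poor fit; inactive means uptake decrease, flat fit within 30% of zero, the rest.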 Starred links: 1 amine or outer side, 2 acyl side, 3 side chain; linkers in the order of their positions; H or OH if unused. Non-standard residues stand in square brackets, D forms with d. Residues, ends and D or L forms follow the SMILES beside them. ξ: configuration not given here. X1 = CCCCCCC[C@H](O)C[C@@H](N[*:1])[C@@H](O)C(=O)[*:2]; X3 = COc1ccc(CCCC(N[*:1])C(=O)[*:2])cc1; ξThr(3R) = C[C@@H](O)C(N)C(=O)O; NMeN = CN[C@@H](CC(N)=O)C(=O)O; X2 = C/C=C(/N[*:1])C(=O)[*:2]; Dhb = C/C=C(\N)C(=O)O; Sar = CNCC(=O)O

What follows are molecules tested against Scavenger receptor class B member 1 (Mus musculus) (UniProt Q61009) (assay: activators of SR-BI-mediated HDL uptake, dose response, cell-based, ldlA[mSR-BI] CHO, DiI fluorescence, cherry-pick (AID 602191;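 further: cell fluorescence from internalized DiI-labeled HDL after washing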;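 on AC40: potency of activators raising HDL uptake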;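 on activation (HDL uptake increase): 0% = median of DMSO wells and 100% = twice the DMSO signal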)). Conditions: ldlA[mSR-BI] CHO cells, 3 h.
Chain of Scavenger receptor class B member 1 (Mus musculus) (Q61009 whole entry, looked up): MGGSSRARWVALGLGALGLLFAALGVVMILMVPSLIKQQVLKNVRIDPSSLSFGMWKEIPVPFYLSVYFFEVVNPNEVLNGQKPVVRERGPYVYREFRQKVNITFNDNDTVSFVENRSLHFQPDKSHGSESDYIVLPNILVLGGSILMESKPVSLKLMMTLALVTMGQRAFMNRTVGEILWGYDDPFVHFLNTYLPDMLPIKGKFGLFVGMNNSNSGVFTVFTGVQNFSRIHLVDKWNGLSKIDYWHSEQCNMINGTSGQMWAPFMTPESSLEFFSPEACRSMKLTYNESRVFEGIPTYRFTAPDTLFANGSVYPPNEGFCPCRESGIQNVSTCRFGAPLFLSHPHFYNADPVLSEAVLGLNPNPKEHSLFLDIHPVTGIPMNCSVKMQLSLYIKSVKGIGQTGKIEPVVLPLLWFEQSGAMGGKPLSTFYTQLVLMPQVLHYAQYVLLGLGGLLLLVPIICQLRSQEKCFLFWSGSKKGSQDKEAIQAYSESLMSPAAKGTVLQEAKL

| Compound | AC40 |
| --- | --- |
| C/C=C1\NC(=O)[C@H](CC(N)=O)N(C)C(=O)C([C@@H](C)O)NC(=O)C(CCCc2ccc(OC)cc2)NC(=O)[C@H](C(C)C)NC(=O)/C(=C\C)NC(=O)[C@H](O)[C@@H](C[C@@H](O)CCCCCCC)NC(=O)[C@H](C)NC(=O)CN(C)C(=O)[C@H](CCC(N)=O)NC1=O (stereo partly drawn) (cyclo(A[X1][X2]V[X3][ξThr(3R)][NMeN][Dhb]Q[Sar])) | 28 µM |
| COc1ccccc1OCCc1nnc(N)s1 | > 35 µM (inactive) |
| COc1ccc(S(=O)(=O)N(C)C[C@H]2Oc3c(NC(=O)Nc4ccc(C(F)(F)F)cc4)cccc3C(=O)N([C@H](C)CO)C[C@@H]2C)cc1 | 33.2 µM |

Same assay, conditions: ldlA[mSR-BI] CHO cells, 3 h, at 35 µM (top of the series)

| Compound | activation (HDL uptake increase) |
| --- | --- |
| NCCCC[C@H]1CNC(=O)C(=O)N1CCc1cccc2ccccc12 | -5.05% (inactive) |
| O=C(CC1C(=O)NCCN1Cc1ccc(Cl)c(F)c1)NC1CCCCC1 (stereo not given) | -11.9% (inactive) |
| Cn1c(=O)oc2cc(S(=O)(=O)NCCN3CCN(c4ccccc4)CC3)ccc21 | -5.09% (inactive) |
| COc1ccc(C(CNS(=O)(=O)c2ccc(NC(C)=O)c(OC)c2)N2CCCCC2)cc1 (stereo not given) | 5.72% (inactive) |
| O=C1C(=O)N(CNc2cccnc2)c2ccccc21 | -7.96% (inactive) |
| CC(=O)c1cccc(NC(=O)COC(=O)Cn2cnc3ccccc32)c1 | 12.6% (inactive) |
| O=C(CN1C(=O)NC2(CCCC2)C1=O)Nc1ccc(Cl)c(C(F)(F)F)c1 | -11.2% (inactive) |
| Cc1ccc(C2(CC(=O)N3CCCC3)CCOC(C(C)C)C2)cc1 (stereo not given) | -13.4% (inactive) |
| NC(=O)C1CCN(C(=O)C2CC(=O)N(Cc3ccccc3)C2)CC1 (stereo not given) | -2.16% (inactive) |
| CCOc1ccc(N(CC(=O)NC2CCCCCC2)S(=O)(=O)c2ccccc2)cc1 | 11.8% (inactive) |
| O=C(NC1CCCCCC1)C1c2ccccc2C(=O)N1CCCN1CCOCC1 (stereo not given) | -1.53% (inactive) |
| C[C@@H]1CN([C@H](C)CO)C(=O)c2cc(NC(=O)Nc3ccc(C(F)(F)F)cc3)ccc2O[C@H]1CN(C)S(=O)(=O)c1ccc(Cl)cc1 | 5.12% (inactive) |
| COCCn1c(=O)[nH]c2cc(C(=O)N3CCN(c4ccccc4OC)CC3)ccc2c1=O | -12.6% (inactive) |
| COc1cccc(CN2CCNC(=O)C2CC(=O)NCCCn2ccnc2)c1 (stereo not given) | 13% (inactive) |
| COc1ccc(S(=O)(=O)N2CCOCC2)cc1NC(=O)COC(=O)C1CC2CCCC(C1)C2=O (stereo not given) | -6.79% (inactive) |
| Cc1csc(NC(=O)Cc2ccccc2[N+](=O)[O-])n1 | 1.17% (inactive) |
| Cc1ccc(CS(=O)Cc2ccc(C(=O)NCc3ccccc3)o2)cc1 (stereo not given) | 4.99% (inactive) |
| O=C(CNC(=O)c1ccco1)NCCCc1ccccc1 | -5.97% (inactive) |
| CC(C)CCNC(=O)c1onc(CSc2ccncc2)c1C(=O)NCCC(C)C | 3.64% (inactive) |
| COC(=O)C1=C(c2ccc(F)cc2OCc2ccccc2)C[C@@H]2CC[C@H]1N2C(=O)N1CCC(O)CC1 | -7.61% (inactive) |
| Cc1ccc(S(=O)(=O)NC(=O)COc2ccccc2C)c(C)c1 | 11.3% (inactive) |
| COc1ccc(Oc2nc(Oc3ccc(OC)cc3)nc(Oc3ccc(OC)cc3)n2)cc1 | -9.22% (inactive) |
| C=C1[C@@H](OC(C)=O)[C@]23C[C@@H]1[C@@H](OC(C)=O)CC2[C@]12C4C[C@H]3[C@H]1N(CC)C[C@]4(C)CC[C@@H]2O (stereo not given in full) | -3.15% (inactive) |
| CCOC(=O)C1CCCN(S(=O)(=O)c2ccc3ccccc3c2)C1 (stereo not given) | -7.01% (inactive) |
| O=C(c1ccc(NS(=O)(=O)c2cccc([N+](=O)[O-])c2)cc1)N1CCN(C(=O)c2ccco2)CC1 | -14.9% (inactive) |
| CCC(=O)Nc1ccc(C(=O)NNC(=O)c2cccs2)cc1 | -6.45% (inactive) |
| COc1ccc(N(CC(=O)NCCSc2ccccn2)S(=O)(=O)c2ccc(C)cc2)cc1OC | -0.821% (inactive) |
